Experiments:
[1] = molecular target: EGFR Del19/T790M/C797S (H1975-clone #28) (Homo sapiens, UniProt P00533, T790M/C797S, form not given); experiment: EGFR degradation, HTRF total-EGFR assay, H1975-clone #28 (DTC); format: cell-based; details: H1975-clone #28 Del19/T790M/C797S, 16 h treatment
From the text: (§1) H1975-clone #28 (Del19/T790M/C797S, or abbr: DTC), H1975-clone #23 (Del19/C797S, or abbr: DC), H1975-clone #25 (L858R/T790M/C797S, or abbr: LTC) and H1975-clone #8 (L858R/C797S, or abbr: LC). EGFR-Del19/T790M/C797S, EGFR-Del19/C797S, EGFR-L858R/T790M/C797S and EGFR-L858R/C797S were stably expressed in H1975 cell lines by lentivirus-mediated over-expression, respectively. The EGFR over-expressed cells then underwent knockout, in which the EGFR targeting sgRNA was designed to only target the endogenous EGFR copies and preserve the exogenous EGFR copies. Followed by the knockout, the edited H1975 cells were seeded in 96 well plates at the concentration of 1 cell/well, cultured for about 2 weeks to allow single clones formation. The formed clones were screened by DNA sequencing and whole exon sequencing analysis for the desired edition. H1975-clone #28, H1975-clone #23, H1975-clone #25 and H1975-clone #8 were finally confirmed as homozygous Del19/T790M/C797S EGFR, Del19/C797S EGFR, L858R/T790M/C797S EGFR and L858R/C797S EGFR clones, respectively.
(§2) H1975-#25, H1975-#28, H1975-#23 and H1975-#8 cells are treated with compounds diluted in 0.2% DMSO cell culture medium on day 2, incubate for 16 h, 37° C., 5% CO2. The final concentration of compounds in all assay is start with 10 μM, 5-fold dilution, total 8 doses were included.
(§3) Total-EGFR cellular kit(64NG1PEH) were used for evaluating EGFR degradation.
(§4) After 16 h treatment, add HTRF lysis buffer to each well; seal the plate and incubate 1 hour at room temperature on a plate shaker; Once the cells are lysed, 16 μL of cell lysate are transferred to a PE 384-well HTRF detection plate; 4 μL of pre-mixed HTRF antibodies are added to each well; cover the plate with a plate sealer, spin 1000 rpm for 1 min, incubate overnight at room temperature; read on BMG PheraStar with HTRF protocol (337 nm-665 nm-620 nm).
(§5) The inhibition (degradation) percentage of the compound was calculated by the following equation:
(§6) Inhibition percentage of Compound=100−100×(Signal−low control)/(High control−low control), wherein signal=each test compound group
(§7) High control=Cell group with added DMSO and without compound, indicating microplate readings without EGFR degradation.
(§8) Imax (Dmax) is the maximum percentage of inhibition (degradation).
(§9) The IC50 (DC50) value of a compound can be obtained by fitting the following equation
(§10) Wherein, X and Y are known values, and IC50, Hillslope, Top and Bottom are the parameters obtained by fitting with software. Y is the inhibition percentage (calculated from the equation), X is the concentration of the compound; IC50 is the concentration of the compound when the 50% inhibition is reached. The smaller the IC50 value is, the stronger the inhibitory ability of the compound is. Vice versa, the higher the IC50 value is, the weaker the ability the inhibitory ability of the compound is; Hillslope represents the slope of the fitted curve, generally around 1*; Bottom represents the minimum value of the curve obtained by data fitting, which is generally 0%±20%; Top represents the maximum value of the curve obtained by data fitting, which is generally 100%±20%. The experimental data were fitted by calculating and analyzing with Dotmatics data analysis software.

[2] = molecular target: T1, EGFR L858R/T790M/C797S (H1975-clone #25) (Homo sapiens, UniProt P00533, C797S/L858R/T790M); experiment: EGFR degradation, HTRF total-EGFR assay, H1975-clone #25 (LTC); format: cell-based; details: H1975-clone #25 L858R/T790M/C797S, 16 h treatment
T1 construct: expressed in transfected cells; host or cells: H1975 (clone #25), lentiviral transduction, endogenous EGFR knocked out
From the text: as §1, §2, §3, §4, §5, §6, §7, §8, §9, §10

T1 sequence (P00533 25-1210 T790M/C797S/L858R): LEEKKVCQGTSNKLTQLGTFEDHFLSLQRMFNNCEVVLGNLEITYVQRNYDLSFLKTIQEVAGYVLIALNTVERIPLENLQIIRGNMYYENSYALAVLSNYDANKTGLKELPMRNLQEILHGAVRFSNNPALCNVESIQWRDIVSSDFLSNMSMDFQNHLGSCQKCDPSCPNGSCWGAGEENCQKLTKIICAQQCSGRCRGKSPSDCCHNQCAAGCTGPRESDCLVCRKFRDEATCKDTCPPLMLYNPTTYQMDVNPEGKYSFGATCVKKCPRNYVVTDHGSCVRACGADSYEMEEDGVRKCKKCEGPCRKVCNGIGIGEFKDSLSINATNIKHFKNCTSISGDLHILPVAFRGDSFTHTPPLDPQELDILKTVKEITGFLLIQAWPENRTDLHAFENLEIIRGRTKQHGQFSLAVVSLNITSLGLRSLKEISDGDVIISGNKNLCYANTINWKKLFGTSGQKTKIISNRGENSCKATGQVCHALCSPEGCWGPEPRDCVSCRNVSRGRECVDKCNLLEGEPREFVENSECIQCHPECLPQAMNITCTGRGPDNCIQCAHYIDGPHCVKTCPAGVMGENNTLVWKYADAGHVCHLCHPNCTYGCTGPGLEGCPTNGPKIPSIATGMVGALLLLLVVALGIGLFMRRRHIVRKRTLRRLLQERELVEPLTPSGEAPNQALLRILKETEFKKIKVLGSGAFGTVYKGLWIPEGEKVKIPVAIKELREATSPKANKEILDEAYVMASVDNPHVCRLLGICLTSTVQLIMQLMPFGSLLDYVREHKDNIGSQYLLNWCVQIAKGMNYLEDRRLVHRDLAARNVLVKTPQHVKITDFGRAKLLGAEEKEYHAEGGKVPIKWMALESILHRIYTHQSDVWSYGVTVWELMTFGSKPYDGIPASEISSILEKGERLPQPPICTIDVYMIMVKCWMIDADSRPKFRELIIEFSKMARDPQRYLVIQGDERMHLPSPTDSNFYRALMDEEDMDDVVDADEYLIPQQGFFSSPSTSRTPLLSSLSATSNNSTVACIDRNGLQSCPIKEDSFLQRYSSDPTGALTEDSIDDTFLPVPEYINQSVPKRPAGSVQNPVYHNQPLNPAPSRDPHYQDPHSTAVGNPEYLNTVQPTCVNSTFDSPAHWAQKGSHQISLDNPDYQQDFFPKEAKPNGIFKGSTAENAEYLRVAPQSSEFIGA
EGFR Del19/T790M/C797S (H1975-clone #28), sequence (P00533 with tags, fused parts or gaps DEL746-750/T790M/C797S, form open): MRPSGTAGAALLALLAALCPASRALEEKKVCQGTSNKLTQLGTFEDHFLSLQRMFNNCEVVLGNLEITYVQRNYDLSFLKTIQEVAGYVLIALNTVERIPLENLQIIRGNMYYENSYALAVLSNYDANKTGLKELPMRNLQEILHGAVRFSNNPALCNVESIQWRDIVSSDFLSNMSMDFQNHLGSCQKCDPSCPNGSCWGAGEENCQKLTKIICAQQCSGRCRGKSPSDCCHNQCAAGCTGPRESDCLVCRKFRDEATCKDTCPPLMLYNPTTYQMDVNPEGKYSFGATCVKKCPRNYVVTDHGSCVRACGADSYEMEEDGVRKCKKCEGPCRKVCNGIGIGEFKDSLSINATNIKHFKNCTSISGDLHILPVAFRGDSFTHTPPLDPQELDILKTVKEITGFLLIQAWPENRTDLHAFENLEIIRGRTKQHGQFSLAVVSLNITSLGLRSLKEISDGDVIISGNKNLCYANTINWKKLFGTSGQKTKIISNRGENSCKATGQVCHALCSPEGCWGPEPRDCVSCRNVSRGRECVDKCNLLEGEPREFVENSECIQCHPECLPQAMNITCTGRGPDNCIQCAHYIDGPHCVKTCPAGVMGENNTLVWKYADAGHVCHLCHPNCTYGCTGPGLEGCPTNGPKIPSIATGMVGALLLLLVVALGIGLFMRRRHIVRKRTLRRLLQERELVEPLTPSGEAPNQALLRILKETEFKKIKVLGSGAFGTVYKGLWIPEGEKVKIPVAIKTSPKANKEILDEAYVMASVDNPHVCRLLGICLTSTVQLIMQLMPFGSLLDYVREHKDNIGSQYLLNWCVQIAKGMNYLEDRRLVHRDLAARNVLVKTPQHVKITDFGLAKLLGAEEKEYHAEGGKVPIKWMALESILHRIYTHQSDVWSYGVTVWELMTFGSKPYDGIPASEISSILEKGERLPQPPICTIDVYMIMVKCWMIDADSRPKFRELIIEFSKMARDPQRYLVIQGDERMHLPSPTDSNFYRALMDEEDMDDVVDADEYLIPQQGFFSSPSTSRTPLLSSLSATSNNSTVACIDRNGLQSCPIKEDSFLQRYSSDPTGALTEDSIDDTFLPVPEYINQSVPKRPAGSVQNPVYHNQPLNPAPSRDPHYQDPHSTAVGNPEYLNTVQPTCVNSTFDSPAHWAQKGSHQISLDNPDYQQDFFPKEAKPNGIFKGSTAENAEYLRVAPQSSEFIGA

SMILES	Degradation H1975 # 28 DTC [1]	Degradation H1975 # 25-LTC [2]
Cc1cc2cc(n1)-c1cnn(C)c1OC[C@H]1C[C@@H](CN3/C(=N/C2=O)Nc2ccc(N4CCN(C5CCN(c6cc(F)c([C@H]7CCC(=O)NC7=O)c(F)c6)CC5)C[C@H]4C)cc23)C1 [Example 18, (R)-3-(4-(4-((R)-4-((7^1s,7^3S,E)-1^1,2^6-dimethyl-3-oxo-5^2,5^3-dihydro-1^1H,5^1H-9-oxa-4-aza-5(2,1)-benzo[d]imidazola-2(2,4)-pyridina-1(4,5)-pyrazola-7(1,3)-cyclobutanacyclononaphane-5^6-yl)-3-methylpiperazin-1-yl)piperidin-1-yl)-2,6-difluorophenyl)piperidine-2,6-dione]	88.4	88.6
COC[C@H]1CN(c2ccc3c(c2)N2C[C@H]4C[C@@H](COc5c(cnn5C)-c5cc(cc(C)n5)C(=O)/N=C/2N3)C4)CCN1C1CCN(c2ccc(C3CCC(=O)NC3=O)nc2C)CC1 (stereo partly drawn) [Example 24, 3-(5-(4-((R)-4-((7^1s,7^3S,E)-1^1,2^6-dimethyl-3-oxo-5^2,5^3-dihydro-1^1H,5^1H-9-oxa-4-aza-5(2,1)-benzo[d]imidazola-2(2,4)-pyridina-1(4,5)-pyrazola-7(1,3)-cyclobutanacyclononaphane-5^6-yl)-2-(methoxymethyl)piperazin-1-yl)piperidin-1-yl)-6-methylpyridin-2-yl)piperidine-2,6-dione]	88.0	91.7
Cc1cc2cc(n1)-c1cnn(C)c1OC[C@H]1C[C@@H](CN3/C(=N/C2=O)Nc2ccc(N4C5CCC4CN(C4CCN(c6cnc(C7CCC(=O)NC7=O)cc6C)CC4)C5)cc23)C1 (some centres unmarked) [Example 130, 3-(5-(4-(8-((7^1s,7^3s,E)-1^1,2^6-dimethyl-3-oxo-5^2,5^3-dihydro-1^1H,5^1H-9-oxa-4-aza-5(2,1)-benzo[d]imidazola-2(2,4)-pyridina-1(4,5)-pyrazola-7(1,3)-cyclobutanacyclononaphane-5^6-yl)-3,8-diazabicyclo[3.2.1]octan-3-yl)piperidin-1-yl)-4-methylpyridin-2-yl)piperidine-2,6-dione]	83.4	90.7
Cc1cc2cc(n1)-c1cnn(C)c1OC[C@H]1C[C@H](CN3/C(=N/C2=O)Nc2ccc(CN4CCN(C(=O)C5CN(c6cc(F)c([C@H]7CCC(=O)NC7=O)c(F)c6)CC5(C)C)CC4)cc23)C1 (stereo partly drawn) [Example 2, (R)-3-(4-((S)-4-(4-(((7^1r,7^3S,E)-1^1,2^6-dimethyl-3-oxo-5^2,5^3-dihydro-1^2H,5′H-9-oxa-4-aza-5(2,1)-benzo[d]imidazola-2(2,4)-pyridina-1(4,5)-pyrazola-7(1,3)-cyclobutanacyclononaphane-5^6-yl)methyl)piperazine-1-carbonyl)-3,3-dimethylpyrrolidin-1-yl)-2,6-difluorophenyl)piperidine-2,6-dione]	84.3	62.0
Cc1cc2cc(n1)-c1cnn(C)c1OC[C@H]1C[C@@H](CN3/C(=N/C2=O)Nc2ccc(N4CCC(N5CCN(c6cc(F)c([C@H]7CCC(=O)NC7=O)c(F)c6)CC5=O)CC4)cc23)C1 [Example 70, (R)-3-(4-(4-(1-((7^1s,7^3s,E)-1^1,2^6-dimethyl-3-oxo-5^2,5^3-dihydro-1^1H,5^1H-9-oxa-4-aza-5(2,1)-benzo[d]imidazola-2(2,4)-pyridina-1(4,5)-pyrazola-7(1,3)-cyclobutanacyclononaphane-5^6-yl)piperidin-4-yl)-3-oxopiperazin-1-yl)-2,6-difluorophenyl)piperidine-2,6-dione]	88.7	91.8

Now from value to molecule:

Degradation H1975 # 28 DTC [1]	Degradation H1975 # 25-LTC [2]	SMILES
77.3	88.3	Cc1cc2cc(n1)-c1cnn(C)c1OC[C@H]1C[C@@H](CN3/C(=N/C2=O)Nc2ccc(N4CC5CCC4CN5C4CCN(c5cnc(C6CCC(=O)NC6=O)cc5C)CC4)cc23)C1 (some centres unmarked) [Example 132, 3-(5-(4-(5-((7^1s,7^3s,E)-1^1,2^6-dimethyl-3-oxo-5^2,5^3-dihydro-1^1H,5^1H-9-oxa-4-aza-5(2,1)-benzo[d]imidazola-2(2,4)-pyridina-1(4,5)-pyrazola-7(1,3)-cyclobutanacyclononaphane-5^6-yl)-2,5-diazabicyclo[2.2.2]octan-2-yl)piperidin-1-yl)-4-methylpyridin-2-yl)piperidine-2,6-dione]
83.2	89.5	Cc1cc2cc(n1)-c1cnn(C)c1OC[C@H]1C[C@@H](CN3/C(=N/C2=O)Nc2ccc(N4CCN(C5CN(C6CCN(c7ccc(C8CCC(=O)NC8=O)nc7C)CC6)C5)CC4)cc23)C1 (some centres unmarked) [Example 121, 3-(5-(4-(3-(4-((7^1s,7^3s,E)-1^1,2^6-dimethyl-3-oxo-5^2,5^3-dihydro-1^1H,5^1H-9-oxa-4-aza-5(2,1)-benzo[d]imidazola-2(2,4)-pyridina-1(4,5)-pyrazola-7(1,3)-cyclobutanacyclononaphane-5^6-yl)piperazin-1-yl)azetidin-1-yl)piperidin-1-yl)-6-methylpyridin-2-yl)piperidine-2,6-dione]
68.0	84.8	Cc1cc2cc(n1)-c1cnn(C)c1OC[C@H]1C[C@@H](CN3/C(=N/C2=O)Nc2ccc(N4CCN(C5CN(C6CCN(c7cnc(C8CCC(=O)NC8=O)cc7C)CC6)C5)CC4)cc23)C1 (some centres unmarked) [Example 131, 3-(5-(4-(3-(4-((7^1s,7^3s,E)-1^1,2^6-dimethyl-3-oxo-5^2,5^3-dihydro-1^1H,5^1H-9-oxa-4-aza-5(2,1)-benzo[d]imidazola-2(2,4)-pyridina-1(4,5)-pyrazola-7(1,3)-cyclobutanacyclononaphane-5^6-yl)piperazin-1-yl)azetidin-1-yl)piperidin-1-yl)-4-methylpyridin-2-yl)piperidine-2,6-dione]
91.5	93.6	Cc1cc2cc(n1)-c1cnn(C)c1OC[C@H]1C[C@@H](CN3/C(=N/C2=O)Nc2ccc(N4CCN(C5CCN(c6cnc(C7CCC(=O)NC7=O)cc6C)CC5)CC4)cc23)C1 (some centres unmarked) [Example 40, 3-(5-(4-(4-((7^1s,7^3s,E)-1^1,2^6-dimethyl-3-oxo-5^2,5^3-dihydro-1^1H,5^1H-9-oxa-4-aza-5(2,1)-benzo[d]imidazola-2(2,4)-pyridina-1(4,5)-pyrazola-7(1,3)-cyclobutanacyclononaphane-5^6-yl)piperazin-1-yl)piperidin-1-yl)-4-methylpyridin-2-yl)piperidine-2,6-dione]
89.9	86.8	Cc1cc2cc(n1)-c1cnn(C)c1OC[C@H]1C[C@@H](CN3/C(=N/C2=O)Nc2ccc(N4CCN([C@H]5CCN(c6ccc(C7CCC(=O)NC7=O)nc6C)CC5(F)F)CC4)cc23)C1 (stereo partly drawn) [Example 125, 3-(5-((S)-4-(4-((7^1s,7^3R,E)-1^1,2^6-dimethyl-3-oxo-5^2,5^3-dihydro-1^1H,5^1H-9-oxa-4-aza-5(2,1)-benzo[d]imidazola-2(2,4)-pyridina-1(4,5)-pyrazola-7(1,3)-cyclobutanacyclononaphane-5^6-yl)piperazin-1-yl)-3,3-difluoropiperidin-1-yl)-6-methylpyridin-2-yl)piperidine-2,6-dione]
